Numbered stars: 1 amine (or outer) side, 2 acyl side, 3 side chain; on linkers, the order of the positions; unused ones are H or OH. Peptide text beside a SMILES is read from it. * marks the point of attachment. C20 diacid = O=C(O)CCCCCCCCCCCCCCCCCCC(=O)*; C18 diacid = O=C(O)CCCCCCCCCCCCCCCCC(=O)*; γGlu = O=C(O)[C@H](CCC(=O)[*:2])N[*:1]
How the values were obtained:
[1] = Solubility in 100 mM glycylglycine buffer at pH 4.0 incubated for 18 hrs by UPLC analysis; format: physicochemical
[2] = Solubility in 100 mM glycylglycine buffer at pH 5.0 incubated for 18 hrs by UPLC analysis; format: physicochemical
[3] = Solubility in 100 mM bistrispropane buffer at pH 6.0 incubated for 18 hrs by UPLC analysis; format: physicochemical
[4] = Solubility in 100 mM glycylglycine buffer at pH 3.0 incubated for 18 hrs by UPLC analysis; format: physicochemical
[5] = target: T1, Amylin receptor AMY3; CALCR/RAMP3 (Homo sapiens, UniProt O60896+P30988); test: Agonist activity at human amylin receptor expressed in BHK570 cells co-expressing RAMP3 assessed as increase in intracellular cAMP concentration incubated for 3 hrs in absence of albumin by CRE luciferase reporter gene assay; format: functional, cell-based
T1 sequence (P30988 whole entry): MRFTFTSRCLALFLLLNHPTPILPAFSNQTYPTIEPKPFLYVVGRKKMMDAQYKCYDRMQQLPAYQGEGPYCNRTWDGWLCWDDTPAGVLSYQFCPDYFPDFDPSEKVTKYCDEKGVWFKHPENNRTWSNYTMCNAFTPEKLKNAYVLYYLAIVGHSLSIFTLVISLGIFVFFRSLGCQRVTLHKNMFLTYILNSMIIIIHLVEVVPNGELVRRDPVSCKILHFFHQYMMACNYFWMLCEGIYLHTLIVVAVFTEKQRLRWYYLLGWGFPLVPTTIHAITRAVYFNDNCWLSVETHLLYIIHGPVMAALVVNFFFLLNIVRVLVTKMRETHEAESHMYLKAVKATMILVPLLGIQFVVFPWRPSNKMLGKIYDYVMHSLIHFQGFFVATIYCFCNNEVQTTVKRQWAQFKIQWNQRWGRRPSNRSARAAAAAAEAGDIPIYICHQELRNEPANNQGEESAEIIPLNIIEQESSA
T1 sequence (O60896 whole entry): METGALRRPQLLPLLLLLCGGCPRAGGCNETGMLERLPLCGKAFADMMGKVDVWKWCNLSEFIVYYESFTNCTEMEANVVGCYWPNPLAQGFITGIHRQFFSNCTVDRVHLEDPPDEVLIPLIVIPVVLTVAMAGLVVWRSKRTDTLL

[6] = target: T1, Amylin receptor AMY3; CALCR/RAMP3; test: Displacement of [125I]-labeled rat amylin from human amylin receptor expressed in BHK tkts13 whole cells co-expressing RAMP3 incubated for 60 mins by scintillation proximity assay; format: cell-based
[7] = Solubility in 100 mM bistrispropane buffer at pH 7.5 incubated for 18 hrs by UPLC analysis; format: physicochemical
[8] = Solubility in 100 mM bistrispropane buffer at pH 6.5 incubated for 18 hrs by UPLC analysis; format: physicochemical
Calcitonin receptor [9] = target: T2, Calcitonin receptor (Homo sapiens, UniProt P30988); test: Agonist activity at human calcitonin receptor expressed in BHK570 cells assessed as increase in intracellular cAMP concentration incubated for 3 hrs in absence of albumin by CRE luciferase reporter gene assay; format: functional, cell-based
T2 sequence (P30988 whole entry): T1 sequence (P30988 whole entry)

[10] = target: T1, Amylin receptor AMY3; CALCR/RAMP3; test: Agonist activity at human amylin receptor expressed in BHK570 cells co-expressing RAMP3 assessed as increase in intracellular cAMP concentration incubated for 3 hrs in presence of 10% FBS by CRE luciferase reporter gene assay; format: functional, cell-based
[11] = Solubility in 100 mM bistrispropane buffer at pH 8.0 incubated for 18 hrs by UPLC analysis; format: physicochemical
[12] = Solubility in 100 mM bistrispropane buffer at pH 7.0 incubated for 18 hrs by UPLC analysis; format: physicochemical
Calcitonin receptor [13] = target: T2, Calcitonin receptor; test: Agonist activity at human calcitonin receptor expressed in BHK570 cells assessed as increase in intracellular cAMP concentration incubated for 3 hrs in presence of 10% FBS by CRE luciferase reporter gene assay; format: functional, cell-based

| solubility at 18 h [1] [µM] | solubility at 18 h [2] [µM] | solubility at 18 h [3] [µM] | solubility at 18 h [4] [µM] | EC50 [5] [nM] | IC50 [6] [nM] | solubility at 18 h [7] [µM] | solubility at 18 h [8] [µM] | EC50 (Calcitonin receptor [9]) [nM] | EC50 [10] [nM] | solubility at 18 h [11] [µM] | solubility at 18 h [12] [µM] | EC50 (Calcitonin receptor [13]) [nM] | Structure (SMILES) |
| --- | --- | --- | --- | --- | --- | --- | --- | --- | --- | --- | --- | --- | --- |
| ≥ 200 | ≥ 200 | ≥ 200 | ≥ 200 | 0.009 | 0.83 | ≥ 200 | ≥ 200 | 0.004 | 0.026 | ≥ 200 | ≥ 200 | – | CC(C)C[C@H](NC(=O)[C@H](C)NC(=O)[C@H](C)NC(=O)[C@@H](NC(=O)[C@H](CO)NC(=O)[C@H](CC(C)C)NC(=O)[C@H](CCC(=O)O)NC(=O)[C@H](CO)NC(=O)[C@H](C)NC(=O)CC[C@H](NC(=O)CCCCCCCCCCCCCCCCC(=O)O)C(=O)O)[C@@H](C)O)C(=O)NCC(=O)N[C@@H](CCCNC(=N)N)C(=O)N[C@@H](CC(C)C)C(=O)N[C@@H](CO)C(=O)N[C@@H](C)C(=O)N[C@@H](CCC(=O)O)C(=O)N[C@@H](CC(C)C)C(=O)N[C@@H](Cc1cnc[nH]1)C(=O)N[C@@H](CCC(=O)O)C(=O)N[C@@H](CC(C)C)C(=O)N[C@@H](C)C(=O)N[C@H](C(=O)N[C@@H](CC(C)C)C(=O)N1CCC[C@H]1C(=O)N[C@@H](CCCNC(=N)N)C(=O)N[C@H](C(=O)N[C@@H](CCC(=O)O)C(=O)N[C@H](C(=O)NCC(=O)N[C@@H](CO)C(=O)N[C@@H](CCC(=O)O)C(=O)N[C@@H](CO)C(=O)N1CCC[C@H]1C(N)=O)[C@@H](C)O)[C@@H](C)O)[C@@H](C)O ({C18 diacid-γGlu}-ASELSTAALGRLSAELHELATLPRTETGSESP-NH2) |
| ≥ 200 | ≥ 200 | ≥ 200 | ≥ 200 | 0.08 | 22 | ≥ 200 | ≥ 200 | 0.019 | 0.413 | ≥ 200 | ≥ 200 | – | CC(C)C[C@H](NC(=O)[C@H](C)NC(=O)[C@H](C)NC(=O)[C@@H](NC(=O)[C@H](CO)NC(=O)[C@H](CC(C)C)NC(=O)[C@H](CCC(=O)O)NC(=O)[C@H](CO)NC(=O)[C@H](C)NC(=O)CC[C@H](NC(=O)CCCCCCCCCCCCCCCCC(=O)O)C(=O)O)[C@@H](C)O)C(=O)NCC(=O)N[C@@H](CCCNC(=N)N)C(=O)N[C@@H](CC(C)C)C(=O)N[C@@H](CO)C(=O)N[C@@H](C)C(=O)N[C@@H](CCC(=O)O)C(=O)N[C@@H](CC(C)C)C(=O)N[C@@H](Cc1cnc[nH]1)C(=O)N[C@@H](CCC(=O)O)C(=O)N[C@@H](CC(C)C)C(=O)N[C@@H](C)C(=O)N[C@H](C(=O)N[C@@H](CC(C)C)C(=O)N1CCC[C@H]1C(=O)N[C@@H](CCCNC(=N)N)C(=O)N[C@H](C(=O)N[C@@H](CCC(=O)O)C(=O)N[C@H](C(=O)NCC(=O)N[C@@H](CO)C(=O)NCC(=O)N1CCC[C@H]1C(=O)N1CCC[C@H]1C(N)=O)[C@@H](C)O)[C@@H](C)O)[C@@H](C)O ({C18 diacid-γGlu}-ASELSTAALGRLSAELHELATLPRTETGSGPP-NH2) |
| – | – | ≥ 200 | ≥ 200 | – | 1.17 | ≥ 200 | ≥ 200 | 0.008 | 0.038 | ≥ 200 | ≥ 200 | 0.011 | CC(C)C[C@H](NC(=O)[C@H](CCC(=O)O)NC(=O)[C@H](Cc1cnc[nH]1)NC(=O)[C@H](CC(C)C)NC(=O)[C@H](CCC(=O)O)NC(=O)[C@H](C)NC(=O)[C@H](CO)NC(=O)[C@H](CC(C)C)NC(=O)[C@H](CCCNC(=N)N)NC(=O)CNC(=O)[C@@H](NC(=O)[C@@H](NC(=O)[C@H](C)NC(=O)[C@@H](NC(=O)[C@H](CO)NC(=O)[C@@H](NC(=O)[C@H](CCC(=O)O)NC(=O)[C@H](CO)NC(=O)[C@H](C)NC(=O)CC[C@H](NC(=O)CCCCCCCCCCCCCCCCC(=O)O)C(=O)O)C(C)C)[C@@H](C)O)C(C)C)C(C)C)C(=O)N[C@@H](C)C(=O)N[C@H](C(=O)N[C@@H](CC(C)C)C(=O)N1CCC[C@H]1C(=O)N[C@@H](CCCNC(=N)N)C(=O)N[C@H](C(=O)N[C@@H](CCC(=O)O)C(=O)N[C@H](C(=O)NCC(=O)N[C@@H](CO)C(=O)NCC(=O)N[C@@H](CO)C(=O)N1CCC[C@H]1C(N)=O)[C@@H](C)O)[C@@H](C)O)[C@@H](C)O ({C18 diacid-γGlu}-ASEVSTAVVGRLSAELHELATLPRTETGSGSP-NH2) |
| ≥ 200 | – | ≥ 200 | ≥ 200 | 0.05 | 0.186 | ≥ 200 | ≥ 200 | 0.034 | 0.064 | ≥ 200 | ≥ 200 | – | CC(C)C[C@H](NC(=O)[C@H](C)NC(=O)[C@H](C)NC(=O)[C@@H](NC(=O)[C@H](CO)NC(=O)[C@H](CC(C)C)NC(=O)[C@H](CCC(=O)O)NC(=O)[C@H](CO)NC(=O)[C@H](C)NC(=O)CC[C@H](NC(=O)CCCCCCCCCCCCCCCCCCC(=O)O)C(=O)O)[C@@H](C)O)C(=O)NCC(=O)N[C@@H](CCCNC(=N)N)C(=O)N[C@@H](CC(C)C)C(=O)N[C@@H](CO)C(=O)N[C@@H](C)C(=O)N[C@@H](CCC(=O)O)C(=O)N[C@@H](CC(C)C)C(=O)N[C@@H](Cc1cnc[nH]1)C(=O)N[C@@H](CCC(=O)O)C(=O)N[C@@H](CC(C)C)C(=O)N[C@@H](CO)C(=O)N[C@H](C(=O)N[C@@H](Cc1ccc(O)cc1)C(=O)N1CCC[C@H]1C(=O)N[C@@H](CCCNC(=N)N)C(=O)N[C@H](C(=O)N[C@@H](CCC(=O)O)C(=O)N[C@H](C(=O)NCC(=O)N[C@@H](CO)C(=O)NCC(=O)N[C@@H](CO)C(=O)N[C@@H](Cc1ccc(O)cc1)C(N)=O)[C@@H](C)O)[C@@H](C)O)[C@@H](C)O ({C20 diacid-γGlu}-ASELSTAALGRLSAELHELSTYPRTETGSGSY-NH2) |
| ≥ 200 | – | ≥ 200 | ≥ 200 | – | 0.244 | ≥ 200 | ≥ 200 | 0.052 | 0.077 | ≥ 200 | ≥ 200 | 0.037 | CC(C)C[C@H](NC(=O)CNC(=O)[C@H](CO)NC(=O)[C@H](C)NC(=O)CC[C@H](NC(=O)CCCCCCCCCCCCCCCCCCC(=O)O)C(=O)O)C(=O)N[C@@H](CO)C(=O)N[C@H](C(=O)N[C@@H](C)C(=O)N[C@H](C(=O)N[C@@H](CC(C)C)C(=O)NCC(=O)N[C@@H](CCCNC(=N)N)C(=O)N[C@@H](CC(C)C)C(=O)N[C@@H](CO)C(=O)N[C@@H](CCC(N)=O)C(=O)N[C@@H](CCC(=O)O)C(=O)N[C@@H](CC(C)C)C(=O)N[C@@H](Cc1cnc[nH]1)C(=O)N[C@@H](CCC(=O)O)C(=O)N[C@@H](CC(C)C)C(=O)N[C@@H](CCC(N)=O)C(=O)N[C@H](C(=O)N[C@@H](Cc1ccc(O)cc1)C(=O)N1CCC[C@H]1C(=O)N[C@@H](CCCNC(=N)N)C(=O)N[C@H](C(=O)N[C@@H](CCC(=O)O)C(=O)N[C@H](C(=O)NCC(=O)N[C@@H](CO)C(=O)N[C@@H](C)C(=O)N[C@H](C(=O)N[C@@H](Cc1ccc(O)cc1)C(N)=O)[C@@H](C)O)[C@@H](C)O)[C@@H](C)O)[C@@H](C)O)C(C)C)[C@@H](C)O ({C20 diacid-γGlu}-ASGLSTAVLGRLSQELHELQTYPRTETGSATY-NH2) |
| – | – | – | – | 0.01 | 10.7 | – | – | 0.012 | 0.044 | – | – | 0.05 | CC(C)C[C@H](NC(=O)CC[C@H](NC(=O)CCCCCCCCCCCCCCCCCCC(=O)O)C(=O)O)C(=O)N[C@@H](CO)C(=O)N[C@@H](CCC(N)=O)C(=O)N[C@@H](CC(C)C)C(=O)N[C@@H](CO)C(=O)N[C@H](C(=O)N[C@@H](CC(C)C)C(=O)N[C@H](C(=O)N[C@@H](CC(C)C)C(=O)NCC(=O)N[C@@H](CCCNC(=N)N)C(=O)N[C@@H](CC(C)C)C(=O)N[C@@H](CO)C(=O)N[C@@H](CCC(N)=O)C(=O)N[C@@H](CCCNC(=N)N)C(=O)N[C@@H](CC(C)C)C(=O)N[C@@H](Cc1cnc[nH]1)C(=O)N[C@@H](CCCNC(=N)N)C(=O)N[C@@H](CC(C)C)C(=O)N[C@@H](CCC(N)=O)C(=O)N[C@H](C(=O)N[C@@H](Cc1ccc(O)cc1)C(=O)N1CCC[C@H]1C(=O)N[C@@H](CCCNC(=N)N)C(=O)N[C@H](C(=O)N[C@@H](CCC(N)=O)C(=O)N[C@H](C(=O)NCC(=O)N[C@@H](CO)C(=O)N[C@@H](CCC(N)=O)C(=O)N[C@H](C(=O)N[C@@H](Cc1ccc(O)cc1)C(N)=O)[C@@H](C)O)[C@@H](C)O)[C@@H](C)O)[C@@H](C)O)C(C)C)[C@@H](C)O ({C20 diacid-γGlu}-LSQLSTLVLGRLSQRLHRLQTYPRTQTGSQTY-NH2) |

Source: ChEMBL document CHEMBL4420076, “Amylin and calcitonin receptor agonist” (2017)
